# Reference: US12617785B2, “Pyrrolo[2,3-b]pyridine-3-carboxamide compositions and methods for ameliorating hearing loss” (priority 2020, dated 2026)
# Tests used:
# Lats1 [1] = biological target: T1, Lats1 (Homo sapiens, UniProt O95835); test: In vitro kinase assay (HTRF KinEASE-STK S1) Lats1, 10 uM ATP; assay type: biochemical
# T1 construct: purchased Carna 01-123
# T1 sequence (O95835 1-1130): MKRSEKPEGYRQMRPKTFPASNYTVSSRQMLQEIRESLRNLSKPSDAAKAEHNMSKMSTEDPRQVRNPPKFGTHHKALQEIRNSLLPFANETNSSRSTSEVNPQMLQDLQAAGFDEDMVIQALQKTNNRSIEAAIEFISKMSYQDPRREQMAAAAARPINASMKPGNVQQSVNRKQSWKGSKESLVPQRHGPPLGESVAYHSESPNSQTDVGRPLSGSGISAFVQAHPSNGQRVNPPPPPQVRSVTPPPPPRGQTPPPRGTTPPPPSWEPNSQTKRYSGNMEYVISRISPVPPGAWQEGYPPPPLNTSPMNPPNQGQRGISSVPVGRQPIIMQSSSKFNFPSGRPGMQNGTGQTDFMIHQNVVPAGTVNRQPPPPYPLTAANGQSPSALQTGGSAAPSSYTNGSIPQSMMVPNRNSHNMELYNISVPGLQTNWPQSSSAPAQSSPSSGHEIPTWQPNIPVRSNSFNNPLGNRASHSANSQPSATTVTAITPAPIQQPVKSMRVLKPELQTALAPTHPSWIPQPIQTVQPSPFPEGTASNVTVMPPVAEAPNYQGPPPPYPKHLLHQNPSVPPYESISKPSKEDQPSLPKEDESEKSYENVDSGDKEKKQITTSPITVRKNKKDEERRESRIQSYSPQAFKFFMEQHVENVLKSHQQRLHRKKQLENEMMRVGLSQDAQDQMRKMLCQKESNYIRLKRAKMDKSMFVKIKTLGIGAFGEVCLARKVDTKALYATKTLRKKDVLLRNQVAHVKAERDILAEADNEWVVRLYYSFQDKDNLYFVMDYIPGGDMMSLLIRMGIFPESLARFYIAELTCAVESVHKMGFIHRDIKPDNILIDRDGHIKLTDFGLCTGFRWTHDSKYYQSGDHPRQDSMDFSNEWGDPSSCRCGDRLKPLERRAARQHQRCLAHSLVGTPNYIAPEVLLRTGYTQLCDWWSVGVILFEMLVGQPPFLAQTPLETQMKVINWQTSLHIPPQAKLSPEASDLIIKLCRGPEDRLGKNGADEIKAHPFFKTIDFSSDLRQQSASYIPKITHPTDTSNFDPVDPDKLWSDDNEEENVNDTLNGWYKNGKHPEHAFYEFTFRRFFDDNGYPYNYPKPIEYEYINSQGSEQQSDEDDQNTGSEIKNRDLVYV
# Method: IVKA assay at 10 uM method:
# (§1) Reactions were conducted with 10 μM STK1 substrate and 10 μM ATP or 2 mM ATP as shown below. […] The enzyme, substrate, ATP, and test compound of the invention were combined in a low-volume 384-well plate and shaken for 50 min at room temperature, unless otherwise indicated. The reaction was stopped by adding the detection reagents, which were prepared at an 8:1 biotin:streptavidin ratio and shaking for 60 min at room temperature. All reactions were conducted in triplicate and a Synergy NEO (Biotek) was used to detect the signal.
# Lats1 [2] = biological target: T1, Lats1; test: In vitro kinase assay (HTRF KinEASE-STK S1) Lats1, 2 mM ATP; assay type: biochemical
# Method: as §1
# Assay was carried out in a 384 well plate. Each drug dosage curve was done with 16 points of 3-fold dilutions in 100% DMSO, and triplicate.
# Yap = Yap phosphorylation by western blot in cultured utricles; assay type: cell-based; details: utricles from adult mice
# Method: (§2) The compound T01 was tested extensively to explore its mechanism of action and its utility in regenerating hair cells of the ear. The effects of the compounds were tested on utricles isolated from mice eight to twelve weeks of age. Internal ears were dissected from mice euthanized with fluothane and placed into ice-cold Hank's balanced salt solution, and cultured as previously described by Gnedeva, K. & Hudspeth [Proc. Natl. Acad. Sci. 112, 14066-14071 (2015)].
# (§3) ; T01-treated=250 EdU+ supporting cells; […]
# [3] = test system: adult utricular supporting cells; test: EdU proliferation assay in cultured adult utricles; assay type: cell-based, mice; details: after 5 days of treatment; control=20; p=0.021
# Method: as §2
# For proliferation assays, utricles were cultured with 10 μM 5-ethynyl-2′-deoxyuridine (EdU) that was detected with click chemistry.
# as §3
# [4] = 10 uM ATP, read-out: LATS1_HTRF_10 uM ATP IC50
# [5] = 2 mM ATP, read-out: LATS1_HTRF_2 mM ATP IC50
SMILES,IC50 (Lats1 [1]; [4]) [nM],IC50 (Lats1 [2]; [5]) [nM],other results
Cc1cs/c(=N\C(=O)c2c[nH]c3ncccc23)n1Cc1ccccc1 [T49],–,–,IC50 (Lats1 [1]): 2.7 nM; IC50 (Lats1 [2]): 0.5 nM
O=C(/N=c1\occn1Cc1ccccc1)c1c[nH]c2ncccc12 [T25],1.9,59.2,–
"NCc1ccccc1Cn1ccs/c1=N\C(=O)c1c[nH]c2ncccc12 [T43, (Z)—N-(3-(2-(aminomethyl)benzyl)thiazol-2(3H)-ylidene)-1H-pyrrolo[2,3-b]pyridine-3-carboxamide]",2.2,141,–
"CCn1ccs/c1=N\C(=O)c1c[nH]c2ncccc12 [T38, (Z)—N-(3-ethylthiazol-2(3H)-ylidene)-1H-pyrrolo[2,3-b]pyridine-3-carboxamide]",27,–,–
Cc1cnc2[nH]cc(C(=O)/N=c3\sccn3Cc3ccccc3)c2c1 [T03],148,–,–
"NCc1ccc(Cn2ccs/c2=N\C(=O)c2c[nH]c3ncccc23)cc1 [T47, (Z)—N-(3-(4-(aminomethyl)benzyl)thiazol-2(3H)-ylidene)-1H-pyrrolo[2,3-b]pyridine-3-carboxamide]",83.2,–,–
"CC(N)CCn1ccs/c1=N\C(=O)c1c[nH]c2ncccc12 (stereo not shown) [T41, (Z)—N-(3-(3-aminobutyl)thiazol-2(3H)-ylidene)-1H-pyrrolo[2,3-b]pyridine-3-carboxamide]",4.4,303,–
"NCc1cccc(Cn2ccs/c2=N\C(=O)c2c[nH]c3ncccc23)c1 [T45, (Z)—N-(3-(3-(aminomethyl)benzyl)thiazol-2(3H)-ylidene)-1H-pyrrolo[2,3-b]pyridine-3-carboxamide]",30.7,309,–
"CC(c1ccccc1)n1ccs/c1=N\C(=O)c1c[nH]c2ncccc12 (stereo not shown) [T39, (Z)—N-(3-(1-Phenylethyl)thiazol-2(3H)-ylidene)-1H-pyrrolo[2,3-b]pyridine-3-carboxamide]",–,–,IC50 (Lats1 [1]): 1.9 nM; IC50 (Lats1 [2]): 59.2 nM
"N#Cc1ccc(Cn2ccs/c2=N\C(=O)c2c[nH]c3ncccc23)cc1 [T46, (Z)—N-(3-(4-cyanobenzyl)thiazol-2(3H)-ylidene)-1H-pyrrolo[2,3-b]pyridine-3-carboxamide]",391,–,–
O=C(/N=c1\sccn1-c1ccccc1)c1c[nH]c2ncccc12 [T14],0.3,3,–
"Cn1ccs/c1=N\C(=O)c1c[nH]c2ncccc12 [T37, (Z)—N-(3-methylthiazol-2(3H)-ylidene)-1H-pyrrolo[2,3-b]pyridine-3-carboxamide]",233,–,–
"O=C(/N=c1\sccn1Cc1ccccc1)c1c[nH]c2ncccc12 [T01, (Z)—N-(3-benzylthiazol-2(3H)-ylidene)-1H-pyrrolo[2,3-b]pyridine-3-carboxamide]",–,–,level of Yap phosphorylation as detected by western blot (Yap): striking reduction; EdU+ supporting cells [3]: 250
Cc1[nH]c2ncccc2c1C(=O)/N=c1\sccn1Cc1ccccc1 [T04],159,–,–
